From patent US10626136B2, “Compositions and methods for improving Rebaudioside X solubility” (The Coca-Cola Company, priority 2012, dated 2020)

Experiments:
Type in all cases: physicochemical
[1] = Duration of clarity of aqueous solutions, with or without filtration
Source text: The water solubility of amorphous Rebaudioside X prepared according to Example 4 was compared in various test material/water ratios with or without filtration prior to solubility determination. Generally, filtration performed after dissolution of sample assist the duration of clarity of the sample (or delays the precipitation/recrystallization of sample).

[2] = Approximate water solubility by solvent addition method (aliquots of water, visual inspection)
Description: The approximate aqueous solubility can be determined by a solvent addition method in which a weighed sample is treated with aliquots of water. The mixture is generally vortexed and/or sonicated between additions to facilitate dissolution. Complete dissolution of the test material is determined by visual inspection. Solubility is estimated based on the total solvent used to provide complete dissolution.
(§1) The approximate water solubility of Form A and amorphous Rebaudioside X were determined by a solvent addition method in which a weighed sample was treated with aliquots of water. The mixture was generally vortexed and/or sonicated between additions to facilitate dissolution. Complete dissolution of the test material was determined by visual inspection. Solubility was estimated based on the total solvent used to provide complete dissolution. The actual solubility may be greater than the value calculated because of the use of solvent aliquots that were too large or due to a slow rate of dissolution.
as §1, with “approximate” for “approximate water”, “the complexes was measured” for “Form A and amorphous Rebaudioside X were determined”

[3] = Water solubility of material before and after the water process (Example 4); conditions: Example 4, before and after heating to 121° C. in water and spray drying
[4] = Dynamic Vapor Sorption (DVS)
Description: The Dynamic Vapor Sorption (DVS) DVS data were collected on a VTI SGA-100 Vapor Sorption Analyzer. NaCl and PVP were used as calibration standards. The sample was not dried prior to analysis. Sorption and desorption data were collected over a range from 5 to 95% RH at 10% RH increments under a nitrogen purge. The equilibrium criterion used for analysis was less than 0.0100% weight change in 5 minutes with a maximum equilibration time of 3 hours. Data were not corrected for the initial moisture content of the samples.

[5] = Equilibrium solubility in water by UV (205 nm)
Description: Samples were analyzed with a Cary 50 UV-Vis dual beam spectrophotometer. The detector was zeroed with a cuvette filled with water prior to sample analysis. Samples were analyzed at room temperature in 1.0 cm quartz cuvette using a scan rate of 600 nm/min in a range of 200-400 nm.
25.8 mg of amorphous Rebaudioside X was added to a 10-mL volumetric flask and dissolved 10 mL with water. This stock solution was diluted to five concentration levels for UV measurement.
A calibration curve at 205 nm was established (Abs at 205 nm vs. concentration) to provide the equation y=5.0625x+0.0022. R^2 was 0.9999. This equation was used for the subsequent determination of Rebaudioside X concentrations.
250 mg of amorphous Rebaudioside X was added to an amber vial and 10 mL of water was added. The mixture was stirred at room temperature about 10 minutes to yield a transparent solution with only small amount of solid remaining. The mixture became opaque rapidly. The mixture was placed on a mechanical oscillator set at a speed of 250 and 25° C. At the sampling time point of 1, 16, 24, 48, 72, 96, and 192 hours, an aliquot of the slurry was transferred to a centrifuge tube and separated at a speed of 16K rcf for 15 minutes. 200 μL of the clear supernatant was transferred to a 50-mL volumetric flask, 10 mL of water was added and mixed well before UV analysis.

C=C1C[C@@]23CC[C@H]4[C@@](C)(CCC[C@@]4(C)C(=O)O[C@@H]4O[C@H](CO)[C@@H](O)[C@H](O[C@@H]5O[C@H](CO)[C@@H](O)[C@H](O)[C@H]5O)[C@H]4O[C@@H]4O[C@H](CO)[C@@H](O)[C@H](O)[C@H]4O)[C@@H]2CC[C@]1(O[C@@H]1O[C@H](CO)[C@@H](O)[C@H](O[C@@H]2O[C@H](CO)[C@@H](O)[C@H](O)[C@H]2O)[C@H]1O[C@@H]1O[C@H](CO)[C@@H](O)[C@H](O)[C@H]1O)C3 [amorphous Rebaudioside X]
Duration of Clarity of Sample ([1]; Sample 1: 250 mg/500 mL water, not filtered): >60 days
Duration of Clarity of Sample ([1]; Sample 2: 500 mg/500 mL water, not filtered): >60 days
Duration of Clarity of Sample ([1]; Sample 4: 1000 mg/500 mL water, not filtered): ^bMost Rebaudioside X dissolved quickly. However, a small amount of floating particles remained.
Duration of Clarity of Sample ([1]; Sample 6: 1750 mg/500 mL water, not filtered): ~0.12 days
Duration of Clarity of Sample ([1]; Sample 8: 1000 mg/100 mL water, filtered (0.22 μm membrane)): ~0.083 days
approximate aqueous solubility [2]: greater than 0.3%
approximate water solubility compared to Form A Rebaudioside X [2]: substantially increased
water solubility [3]: greater than 1%
solids recovered after DVS ([4]; XRPD after the DVS analysis): x-ray amorphous
weight loss upon desorption ([4]; desorption from 95% to 5% RH): 26.0 wt %
weight loss upon equilibration ([4]; equilibration at 5% RH): 3.1 wt %
weight gain on sorption ([4]; increasing the relative humidity from 5% to 95% RH): 26.3 wt %
hygroscopicity ([4]; judged from the large weight change): hygroscopic
Average Sample Concentration ([5]; 250 mg in 10 mL water, 25° C.): Average Sample Concentration = 2.6 mg/mL
Original Sample Concentration ([5]; 250 mg in 10 mL water, 25° C., sampling time 1 hrs): 5.8 mg/mL
Original Sample Concentration ([5]; 250 mg in 10 mL water, 25° C., sampling time 16 hrs): 2.7 mg/mL
Original Sample Concentration ([5]; 250 mg in 10 mL water, 25° C., sampling time 24 hrs): 2.6 mg/mL
Original Sample Concentration ([5]; 250 mg in 10 mL water, 25° C., sampling time 48 hrs): 2.5 mg/mL
Original Sample Concentration ([5]; 250 mg in 10 mL water, 25° C., sampling time 72 hrs): 2.8 mg/mL
Original Sample Concentration ([5]; 250 mg in 10 mL water, 25° C., sampling time 96 hrs): 2.8 mg/mL
Original Sample Concentration ([5]; 250 mg in 10 mL water, 25° C., sampling time 192 hrs): 2.6 mg/mL
XRPD pattern of the solids recovered after solubility testing ([5]; after 8 days solubility testing in water): consistent with Form A, indicating conversion

C=C1C[C@@]23CCC4[C@](C)(C(=O)OC5OC(CO)C(O)C(OC6OC(CO)C(O)C(O)C6O)C5OC5OC(CO)C(O)C(O)C5O)CCC[C@@]4(C)[C@@H]2CCC1(OC1OC(CO)C(O)C(OC2OC(CO)C(O)C(O)C2O)C1OC1OC(CO)C(O)C(O)C1O)C3 (stereo partly drawn) [Form A]
Approximate Water Solubility [2]: 1400 µg/mL
approximate aqueous solubility [2]: 0.1 to about 0.14
water solubility ([3]; listed as Form A Rebaudioside X): 0.05%

C=C1C[C@@]23CCC4[C@](C)(C(=O)OC5OC(CO)C(O)C(OC6OC(CO)C(O)C(O)C6O)C5OC5OC(CO)C(O)C(O)C5O)CCC[C@@]4(C)[C@@H]2CCC1(OC1OC(CO)C(O)C(OC2OC(CO)C(O)C(O)C2O)C1OC1OC(CO)C(O)C(O)C1O)C3 (stereo partly drawn) [Amorphous (ethanol process)]
Approximate Water Solubility [2]: >10000 µg/mL

C=C1C[C@@]23CCC4[C@](C)(C(=O)OC5OC(CO)C(O)C(OC6OC(CO)C(O)C(O)C6O)C5OC5OC(CO)C(O)C(O)C5O)CCC[C@@]4(C)[C@@H]2CCC1(OC1OC(CO)C(O)C(OC2OC(CO)C(O)C(O)C2O)C1OC1OC(CO)C(O)C(O)C1O)C3 (stereo partly drawn) [Amorphous (water process)]
Approximate Water Solubility [2]: >10000 µg/mL
